Assay [1] addresses T1, GK-W99R/W167F/W257F (Homo sapiens, UniProt P35557, W167F/W257F/W99R).
T1 construct: GST (cleaved yes); made in house; host or cells: Escherichia coli
T1 sequence (P35557 1-465 W99R/W167F/W257F): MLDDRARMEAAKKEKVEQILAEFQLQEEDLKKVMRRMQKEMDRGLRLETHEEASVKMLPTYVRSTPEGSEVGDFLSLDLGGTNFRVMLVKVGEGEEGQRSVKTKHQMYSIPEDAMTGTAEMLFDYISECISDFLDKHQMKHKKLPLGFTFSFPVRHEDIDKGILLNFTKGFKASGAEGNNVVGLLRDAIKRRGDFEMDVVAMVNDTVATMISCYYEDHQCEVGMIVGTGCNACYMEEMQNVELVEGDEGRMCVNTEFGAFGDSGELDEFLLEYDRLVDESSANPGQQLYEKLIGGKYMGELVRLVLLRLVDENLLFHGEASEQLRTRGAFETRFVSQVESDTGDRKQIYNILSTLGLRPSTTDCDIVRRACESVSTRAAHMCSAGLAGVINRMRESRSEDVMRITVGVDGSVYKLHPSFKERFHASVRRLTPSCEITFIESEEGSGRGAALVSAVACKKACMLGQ
On the set-up: method as in ref 4 (a number printed in a supplementary file, which may have a reference list of its own: not looked up in the article's list). The following applies: read-out: ATP Km; cited from earlier work.

In assay [2] the target is T2, GK-WT (Homo sapiens, UniProt P35557).
T2 construct: GST (cleaved yes); made in house; host or cells: Escherichia coli
T2 sequence (P35557 1-465): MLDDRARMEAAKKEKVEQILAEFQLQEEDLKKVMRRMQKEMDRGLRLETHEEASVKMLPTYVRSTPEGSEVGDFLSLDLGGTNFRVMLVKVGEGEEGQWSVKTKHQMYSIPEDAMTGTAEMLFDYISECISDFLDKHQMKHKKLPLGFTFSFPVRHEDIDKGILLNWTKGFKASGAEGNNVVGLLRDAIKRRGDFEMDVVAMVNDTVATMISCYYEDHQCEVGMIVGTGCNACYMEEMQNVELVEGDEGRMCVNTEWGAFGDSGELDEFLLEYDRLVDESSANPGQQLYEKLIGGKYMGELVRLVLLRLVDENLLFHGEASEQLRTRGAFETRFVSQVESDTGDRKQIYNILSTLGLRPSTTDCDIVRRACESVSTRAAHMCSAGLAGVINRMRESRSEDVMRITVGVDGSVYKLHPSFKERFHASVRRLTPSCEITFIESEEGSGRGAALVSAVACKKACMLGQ
Set-up: method as in ref 4 (a number printed in a supplementary file, which may have a reference list of its own: not looked up in the article's list). The following applies: read-out: ATP Km; cited from earlier work.

In assay [3] the target is T3, hGKRP (0.3 μM)–GK-W99R/W167F/W257F (1 μM) complex, GKRP-WT (Homo sapiens, UniProt P35557+Q14397, W167F/W257F/W99R).
T3 construct: FLAG; GST (cleaved yes); made in house; host or cells: Escherichia coli
T3 sequence (Q14397 1-625): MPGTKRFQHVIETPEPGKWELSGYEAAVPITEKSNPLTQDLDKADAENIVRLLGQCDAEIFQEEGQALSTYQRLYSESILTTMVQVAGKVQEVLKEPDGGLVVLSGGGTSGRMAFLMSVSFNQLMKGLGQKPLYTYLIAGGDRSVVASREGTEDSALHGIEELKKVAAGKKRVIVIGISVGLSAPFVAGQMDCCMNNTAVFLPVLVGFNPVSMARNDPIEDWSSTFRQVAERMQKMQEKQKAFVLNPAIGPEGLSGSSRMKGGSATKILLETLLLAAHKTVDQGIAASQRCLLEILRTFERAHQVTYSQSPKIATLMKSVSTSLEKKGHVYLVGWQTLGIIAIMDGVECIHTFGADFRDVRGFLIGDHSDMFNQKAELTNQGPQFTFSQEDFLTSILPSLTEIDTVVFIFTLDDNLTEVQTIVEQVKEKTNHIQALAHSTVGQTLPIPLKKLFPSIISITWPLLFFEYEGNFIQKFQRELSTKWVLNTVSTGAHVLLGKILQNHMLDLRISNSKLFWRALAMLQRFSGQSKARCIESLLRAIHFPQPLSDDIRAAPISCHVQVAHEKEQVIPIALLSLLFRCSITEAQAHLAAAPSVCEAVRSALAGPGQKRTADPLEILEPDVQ
T3 sequence (P35557 1-465 W99R/W167F/W257F): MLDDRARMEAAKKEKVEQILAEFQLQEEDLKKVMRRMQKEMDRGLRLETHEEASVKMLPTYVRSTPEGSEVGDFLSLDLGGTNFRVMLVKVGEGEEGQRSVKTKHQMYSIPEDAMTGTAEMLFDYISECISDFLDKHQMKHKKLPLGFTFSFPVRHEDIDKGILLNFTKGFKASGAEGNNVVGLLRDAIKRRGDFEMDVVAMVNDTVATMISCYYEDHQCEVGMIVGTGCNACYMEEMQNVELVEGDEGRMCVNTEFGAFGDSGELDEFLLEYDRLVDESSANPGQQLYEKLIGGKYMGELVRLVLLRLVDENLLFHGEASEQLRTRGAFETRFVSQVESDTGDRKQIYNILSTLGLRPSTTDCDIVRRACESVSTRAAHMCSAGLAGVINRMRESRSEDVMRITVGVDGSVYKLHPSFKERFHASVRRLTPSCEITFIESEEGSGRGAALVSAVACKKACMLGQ
Briefly: Ligand binding by / disassembly of GKRP-WT–GK-W99R/W167F/W257F complex by TF of hGKRP. The following applies: ligand titration of 3:1 GK–GKRP-WT complex, 20°C. On the procedure:
(§1) Spectra were measured with a Fluorolog-3-21 Jobin-Yvon Spex Instrument SA equipped with a 450 W Xenon lamp for excitation and a cooled R2658P Hamamatsu photomultiplier tube for detection. For all measurements, 90° geometry was employed and 295 nm excitation wavelengths were used to observe fluorescence emission in the 300–500 nm range. For TF, spectra slit width was set to provide a bandpath of 3 nm for excitation and 3 nm for emission. Spectra were corrected for instrumental response using Spex instrument software. A thermostatically controlled cell holder maintained sample temperature at 20°C. A thermocoupler was used to measure sample temperature. The buffer used contained 20 mM phosphate, 50 mM KCl, 1 mM EDTA and 1 mM DTT (pH 7.2).
(§2) Fluorescence data were obtained via the stepwise addition of the appropriate amount of non-fluorescent GK-W99R/W167F/W257F to GKRP in a fluorescence cuvette. […] The change in GKRP protein fluorescence during titration was also measured using time-dependent scans. A manual procedure was used such that a typical titration with 10–12 additions required 20–25 min to perform. The same buffer as described above was routinely used unless stated otherwise. The bandpath was 0.5 nm at 295 nm for excitation and 12 nm at 340 nm for emission. […] For some graphical presentations the linear form of the Hill equation was used: log[F/(Fsat−F)]=H log x−H log KD [46].

In assay [4] the target is T4, GKRP-WT (Homo sapiens, UniProt Q14397).
T4 construct: FLAG; made in house; host or cells: Escherichia coli
T4 sequence (Q14397 1-625): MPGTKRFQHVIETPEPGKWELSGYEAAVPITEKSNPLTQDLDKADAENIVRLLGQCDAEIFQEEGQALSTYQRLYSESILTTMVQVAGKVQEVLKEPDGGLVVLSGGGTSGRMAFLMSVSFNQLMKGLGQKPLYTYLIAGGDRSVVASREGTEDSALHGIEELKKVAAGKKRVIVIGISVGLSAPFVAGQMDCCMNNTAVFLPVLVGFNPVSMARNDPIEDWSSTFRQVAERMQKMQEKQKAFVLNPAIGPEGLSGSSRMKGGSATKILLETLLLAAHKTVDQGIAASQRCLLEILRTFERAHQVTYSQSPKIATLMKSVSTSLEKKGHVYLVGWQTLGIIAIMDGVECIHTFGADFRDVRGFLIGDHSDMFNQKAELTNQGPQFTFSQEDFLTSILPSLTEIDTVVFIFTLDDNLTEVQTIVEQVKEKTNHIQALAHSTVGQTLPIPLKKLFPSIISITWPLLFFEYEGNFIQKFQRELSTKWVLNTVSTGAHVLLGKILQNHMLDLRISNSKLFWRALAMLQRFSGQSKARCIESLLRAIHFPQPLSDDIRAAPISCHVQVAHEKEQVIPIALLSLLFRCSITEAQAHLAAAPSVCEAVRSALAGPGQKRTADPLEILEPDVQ
As to the kind of experiment: Ligand binding to free GKRP-WT measured by TF of GKRP. The following applies: ligand alone.

Assay [5] deals with T5, hGKRP (0.3 μM)–GK-W99R/W167F/W257F (1 μM) complex, GKRP-P446L (Homo sapiens, UniProt P35557+Q14397, P446L/W167F/W257F/W99R).
T5 construct: FLAG; GST (cleaved yes); made in house; host or cells: Escherichia coli
T5 sequence (Q14397 1-625 P446L): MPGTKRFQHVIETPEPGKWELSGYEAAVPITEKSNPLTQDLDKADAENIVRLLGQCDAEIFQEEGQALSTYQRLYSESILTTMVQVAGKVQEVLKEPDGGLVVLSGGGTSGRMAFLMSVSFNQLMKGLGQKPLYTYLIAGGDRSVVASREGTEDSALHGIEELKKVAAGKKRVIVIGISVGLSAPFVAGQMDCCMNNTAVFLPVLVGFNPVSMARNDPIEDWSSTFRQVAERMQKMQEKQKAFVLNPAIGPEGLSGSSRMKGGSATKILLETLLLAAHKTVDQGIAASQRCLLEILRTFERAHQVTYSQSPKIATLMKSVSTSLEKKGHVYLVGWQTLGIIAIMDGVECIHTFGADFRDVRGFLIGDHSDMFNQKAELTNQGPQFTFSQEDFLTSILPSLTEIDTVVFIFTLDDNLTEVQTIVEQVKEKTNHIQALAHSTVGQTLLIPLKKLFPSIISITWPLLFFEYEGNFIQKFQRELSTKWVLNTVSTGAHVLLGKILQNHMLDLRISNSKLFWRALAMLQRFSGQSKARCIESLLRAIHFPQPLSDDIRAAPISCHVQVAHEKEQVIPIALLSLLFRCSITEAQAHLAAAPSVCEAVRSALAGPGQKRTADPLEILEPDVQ
T5 sequence (P35557 1-465 W99R/W167F/W257F): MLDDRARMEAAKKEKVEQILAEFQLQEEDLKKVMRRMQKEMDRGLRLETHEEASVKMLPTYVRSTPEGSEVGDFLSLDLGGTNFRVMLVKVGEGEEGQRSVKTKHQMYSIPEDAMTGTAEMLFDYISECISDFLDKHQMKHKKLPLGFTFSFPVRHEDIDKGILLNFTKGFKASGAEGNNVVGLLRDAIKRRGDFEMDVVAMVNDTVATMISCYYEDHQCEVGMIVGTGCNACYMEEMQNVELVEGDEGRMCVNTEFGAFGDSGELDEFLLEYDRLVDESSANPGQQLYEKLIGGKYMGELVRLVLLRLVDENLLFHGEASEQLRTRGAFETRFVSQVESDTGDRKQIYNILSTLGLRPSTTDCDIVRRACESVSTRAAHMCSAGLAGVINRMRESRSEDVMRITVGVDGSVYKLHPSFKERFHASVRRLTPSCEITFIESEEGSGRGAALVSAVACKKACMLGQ
As to the kind of experiment: Ligand binding by / disassembly of GKRP-P446L–GK-W99R/W167F/W257F complex by TF of hGKRP. The following applies: ligand titration of 3:1 GK–GKRP-P446L complex, 20°C. As to the method: as §1, §2

The target in assay [6] is T6, GKRP-P446L (Homo sapiens, UniProt Q14397, P446L).
T6 construct: FLAG; made in house; host or cells: Escherichia coli
T6 sequence (Q14397 1-625 P446L): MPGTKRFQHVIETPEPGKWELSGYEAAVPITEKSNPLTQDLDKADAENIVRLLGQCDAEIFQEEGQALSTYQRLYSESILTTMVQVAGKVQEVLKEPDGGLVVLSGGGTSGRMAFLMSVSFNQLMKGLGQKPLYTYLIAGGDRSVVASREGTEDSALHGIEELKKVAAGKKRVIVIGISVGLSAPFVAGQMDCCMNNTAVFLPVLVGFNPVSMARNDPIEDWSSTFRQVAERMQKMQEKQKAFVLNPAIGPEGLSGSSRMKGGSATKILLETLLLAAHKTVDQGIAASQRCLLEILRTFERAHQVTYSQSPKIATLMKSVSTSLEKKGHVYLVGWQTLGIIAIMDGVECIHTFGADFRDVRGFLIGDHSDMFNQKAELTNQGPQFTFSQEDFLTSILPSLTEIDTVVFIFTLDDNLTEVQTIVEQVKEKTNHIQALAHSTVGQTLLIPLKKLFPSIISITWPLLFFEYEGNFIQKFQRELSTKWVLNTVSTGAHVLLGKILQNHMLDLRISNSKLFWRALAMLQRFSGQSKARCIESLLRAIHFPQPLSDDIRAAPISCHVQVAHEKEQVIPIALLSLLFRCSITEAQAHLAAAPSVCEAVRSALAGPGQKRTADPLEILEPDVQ
As to the kind of experiment: Ligand binding to free GKRP-P446L measured by TF of GKRP. The following applies: ligand alone.

Each structure is given as a SMILES string.

Consider `Nc1ncnc2c1ncn2[C@@H]1O[C@H](COP(=O)(O)OP(=O)(O)OP(=O)(O)O)[C@@H](O)[C@H]1O` [ATP], for which the Km in assay [1] is 1960 µM; in assay [2], 490 µM.

For `O=C(COP(=O)([O-])[O-])[C@@H](O)[C@H](O)[C@H](O)CO.[Na+].[Na+]` [F1P, D-fructose 1-phosphate sodium salt], the H in assay [3] and in assay [5] was 1 each time. In addition, the “ΔF (relative fluorescence change at 340 nm)” value in assay [3] is given as −0.086; in assay [4] (0.3 μM GKRP-WT, 20°C), −0.04; in assay [5] (glucose curve biphasic (two phases)), −0.095; in assay [6] (0.3 μM GKRP-P446L, 20°C) it was −0.08. The Kd in assay [3] (read-out: Kd (apparent)) is 127 µM; in assay [4] (0.3 μM GKRP-WT, 20°C, read-out: S0.5) it was 65 µM; in assay [5] (read-out: Kd (apparent)), 298 µM; in assay [6] (0.3 μM GKRP-P446L, 20°C, read-out: S0.5), 139 µM. Besides, the “H (Hill number)” value in assay [4] (0.3 μM GKRP-WT, 20°C) came to 1; in assay [6] (0.3 μM GKRP-P446L, 20°C) it was 1. Further, the “effect on the TF signal of GKRP-WT” value in assay [4] is listed as “decrease”. For the same compound, the “effect on the TF signal of GKRP-P446L” value in assay [6] is recorded as “decrease”.

Values taken from publication PMC4109836, “Analysis of the co-operative interaction between the allosterically regulated proteins GK and GKRP using tryptophan fluorescence” (Biochemical Journal, 2014).
